Experimental data from patent publication US20130288989A1, “NEW USE OF CHEMICAL INGREDIENTS IN CYNOMORIUM AS PHYTOESTROGEN” (TIANJIN UNIVERSITY OF TRADITIONAL CHINESE MEDICINE, priority 2010, published 2013).

Assays:
Format in all cases: cell-based
[1] = test system: estrogen receptor; assay: Estrogen receptor activation test: overall estrogen activity and ERβ versus ERα comparison; details: for ERβ/ERα (both % of estradiol at 10^−8M): Hela cells; for estrogen activity / estrogen receptor activation (in words): estradiol as positive control; for selectivity to receptor subtypes (ERα vs ERβ): result in words
Protocol: (§1) Actually, estrogens show their biological activity by regulating estrogen responding genetic transcription.
(§2) Under condition of 37° C. and 5% CO2, Hela cells were cultured in phenol red-free high sugar DMEM culture medium containing 10% calf serum in incubator, the cells were spread in 60% density on 96-well plate when cell density was about 90%, each well was added with 150 ul of phenol red-free DMEM culture medium containing 10% serum, cultivation was performed overnight. To each well of the 96-well plate, 100 ul of serum-free DMEM culture medium and 0.4 μg plasmid (ptk-ERE-luc 2 μg, tk-Renila 1 μg, ERα or ERβ 1 μg) were used for transfection. After 6 h of transfection, each well was added with 150 ul of serum-free phenol red-free DMEM culture medium. Three wells were selected form each group, added with 10^−8M estradiol E2, and substance to be tested in different concentrations, 15 ul/well (sample 4-5 concentration gradient groups), continuously cultured under condition of 37° C., 5% CO2 for 24 h. After 24 h, each well was added with 80 μl of cell disruption solution, and the cells were subjected to freeze thawing once to be sufficiently disrupted. As for the cell lysis solution of each well, its activities to firefly luciferase and Renila luciferase were separately measured.

[2] = molecular target: T1, ERα (Homo sapiens, UniProt P03372); assay: ERα luciferase reporter gene transcription activation in transfected Hela cells; details: for ERα (% of the control) mean ± S.D. / ERα (% of estradiol): Hela cells; for ERα (% of the control) mean ± S.D.: 24 h; for ERα (% of estradiol): estradiol at 10^−8M
T1 construct: expressed in transfected cells; host or cells: Hela cells (ER expression free)
T1 sequence (P03372 1-595): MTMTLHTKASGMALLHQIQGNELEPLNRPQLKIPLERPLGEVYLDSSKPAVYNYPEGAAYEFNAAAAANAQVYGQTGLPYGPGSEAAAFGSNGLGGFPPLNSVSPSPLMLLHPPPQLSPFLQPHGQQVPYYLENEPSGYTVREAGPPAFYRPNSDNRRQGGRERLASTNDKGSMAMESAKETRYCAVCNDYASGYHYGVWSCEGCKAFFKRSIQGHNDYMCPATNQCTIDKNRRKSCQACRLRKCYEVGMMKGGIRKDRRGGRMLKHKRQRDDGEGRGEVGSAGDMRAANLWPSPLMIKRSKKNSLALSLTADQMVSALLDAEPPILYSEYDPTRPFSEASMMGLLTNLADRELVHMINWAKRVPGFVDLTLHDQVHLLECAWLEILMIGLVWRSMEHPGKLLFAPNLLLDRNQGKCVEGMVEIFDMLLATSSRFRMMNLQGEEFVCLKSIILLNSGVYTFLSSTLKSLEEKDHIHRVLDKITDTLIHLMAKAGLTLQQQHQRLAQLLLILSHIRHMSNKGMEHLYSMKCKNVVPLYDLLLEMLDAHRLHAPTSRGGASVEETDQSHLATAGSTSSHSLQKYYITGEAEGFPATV
Excerpt: as §1
(§3) Formulation of sample solutions of catechin, (−)epicatechin-3-O-gallate, naringenin-4′-O-glucoside, phlorizin, emodin, chrysophanol (separately obtained from Example 1):
(§4) Catechin, (−)epicatechin-3-O-gallate, naringenin-4′-O-glucoside, phlorizin, emodin, chrysophanol in corresponding weights were separately weighed precisely, than added with DMSO for dissolution, the corresponding sample solution high dose groups (10 μM or 1 μM), were diluted in certain times to separately obtain low dose groups (1 μM to 0.001 μM).
as §2

[3] = molecular target: T2, ERβ (Homo sapiens, UniProt Q92731); assay: ERβ luciferase reporter gene transcription activation in transfected Hela cells; details: for ERβ (% of the control) mean ± S.D. / ERβ (% of estradiol): Hela cells; for ERβ (% of the control) mean ± S.D.: 24 h; for ERβ (% of estradiol): estradiol at 10^−8M
T2 construct: expressed in transfected cells; host or cells: Hela cells (ER expression free)
Excerpt: as §1, §3, §4, §2

T2 sequence (Q92731 whole entry): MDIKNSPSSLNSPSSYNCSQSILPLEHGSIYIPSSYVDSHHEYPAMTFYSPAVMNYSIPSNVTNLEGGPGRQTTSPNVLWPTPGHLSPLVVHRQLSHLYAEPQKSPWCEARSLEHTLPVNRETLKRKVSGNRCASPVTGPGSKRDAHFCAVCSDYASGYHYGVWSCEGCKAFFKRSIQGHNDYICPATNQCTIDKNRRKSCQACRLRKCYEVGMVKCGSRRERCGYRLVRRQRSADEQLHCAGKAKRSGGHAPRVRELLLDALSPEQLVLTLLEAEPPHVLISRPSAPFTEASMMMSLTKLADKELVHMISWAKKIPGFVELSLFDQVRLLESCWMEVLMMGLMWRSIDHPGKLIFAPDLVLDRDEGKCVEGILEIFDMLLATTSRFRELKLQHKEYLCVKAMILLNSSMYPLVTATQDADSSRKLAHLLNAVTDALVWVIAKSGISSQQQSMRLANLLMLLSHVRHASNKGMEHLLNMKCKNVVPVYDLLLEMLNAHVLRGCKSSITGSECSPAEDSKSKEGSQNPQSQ

Compound | ERβ/ERα (both % of estradiol at 10^−8M) ([1]; sample 10^−6 M) | ERβ/ERα (both % of estradiol at 10^−8M) ([1]; sample 10^−7 M) | ERβ/ERα (both % of estradiol at 10^−8M) ([1]; sample 10^−8 M) | ERβ/ERα (both % of estradiol at 10^−8M) ([1]; sample 10^−9 M) | ERα (% of the control) mean ± S.D. ([2]; 10^−6 M) | ERα (% of estradiol) ([2]; 10^−6 M) | ERα (% of the control) mean ± S.D. ([2]; 10^−7 M) | ERα (% of estradiol) ([2]; 10^−7 M) | ERα (% of the control) mean ± S.D. ([2]; 10^−8 M) | ERα (% of estradiol) ([2]; 10^−8 M) | ERα (% of the control) mean ± S.D. ([2]; 10^−9 M) | ERα (% of estradiol) ([2]; 10^−9 M) | ERβ (% of the control) mean ± S.D. ([3]; 10^−6 M) | ERβ (% of estradiol) ([3]; 10^−6 M) | ERβ (% of the control) mean ± S.D. ([3]; 10^−7 M) | ERβ (% of estradiol) ([3]; 10^−7 M) | ERβ (% of the control) mean ± S.D. ([3]; 10^−8 M) | ERβ (% of estradiol) ([3]; 10^−8 M) | ERβ (% of the control) mean ± S.D. ([3]; 10^−9 M) | ERβ (% of estradiol) ([3]; 10^−9 M) | also measured
O=C(O[C@@H]1Cc2c(O)cc(O)cc2O[C@@H]1c1ccc(O)c(O)c1)c1cc(O)c(O)c(O)c1 [(−)Epicatechin-3-O-gallate, (−)epicatechin-3-O-gallate] | 0.90 | 0.93 | 0.97 | 0.94 | 192.40 ± 27.72 % of the control | (90.43) % of estradiol | 200.50 ± 13.72 % of the control | (94.24) % of estradiol | 170.00 ± 13.87 % of the control | (79.90) % of estradiol | 121.95 ± 10.76 % of the control | (57.32) % of estradiol | 148.13 ± 4.22 % of the control | (81.56) % of estradiol | 159.55 ± 28.00 % of the control | (87.84) % of estradiol | 131.16 ± 15.95 % of the control | (77.72) % of estradiol | 97.75 ± 17.66 % of the control | (53.82) % of estradiol | ERβ/ERα (both % of estradiol at 10^−8M) ([1]; sample 10^−5 M): 0.94; estrogen activity / estrogen receptor activation (in words) ([1]; listed as (−) epicatechin-3-O-gallate): show relevance to estrogen receptor activation; estrogen activity / estrogen receptor activation (in words) ([1]; listed as (−)epicatechin-3-O-gallate): potent activity of estrogen; selectivity to receptor subtypes (ERα vs ERβ) [1]: a higher selectivity to ERα than ERβ; ERα (% of the control) mean ± S.D. ([2]; 10^−5 M): 171.88 ± 22.57 % of the control; ERα (% of estradiol) ([2]; 10^−5 M): (80.79) % of estradiol; concentration at which the transcriptional activity of ERα is agonized ([2]; luciferase reporter gene): 10^−8-10^−5 M; concentration of the highest ERα transcription activity ([2]; luciferase reporter gene): 10^−7 M; ERβ (% of the control) mean ± S.D. ([3]; 10^−5 M): 137.80 ± 15.93 % of the control; ERβ (% of estradiol) ([3]; 10^−5 M): (75.87) % of estradiol; concentration at which the transcriptional activity of ERβ is agonized ([3]; luciferase reporter gene): 10^−8-10^−5 M; concentration of the highest ERβ transcription activity ([3]; luciferase reporter gene): 10^−7 M
Cc1cc(O)c2c(c1)C(=O)c1cccc(O)c1C2=O [Chrysophanol, chrysophanol] | 1.19 | 1.03 | 1.16 | 1.25 | 122.89 ± 8.94 % of the control | (51.51) % of estradiol | 97.77 ± 8.47 % of the control | (40.98) % of estradiol | 80.15 ± 13.88 % of the control | (33.59) % of estradiol | 84.53 ± 14.21 % of the control | (35.43) % of estradiol | 120.43 ± 12.98 % of the control | (61.26) % of estradiol | 83.12 ± 4.78 % of the control | (42.28) % of estradiol | 76.85 ± 8.82 % of the control | (39.09) % of estradiol | 86.99 ± 23.16 % of the control | (44.25) % of estradiol | –
Cc1cc(O)c2c(c1)C(=O)c1cc(O)cc(O)c1C2=O [Emodin, emodin] | 1.03 | 1.00 | 1.00 | 1.07 | 146.40 ± 18.07 % of the control | (64.01) % of estradiol | 109.96 ± 11.33 % of the control | (48.07) % of estradiol | 108.48 ± 27.45 % of the control | (47.43) % of estradiol | 101.27 ± 15.90 % of the control | (44.27) % of estradiol | 145.21 ± 8.06 % of the control | (65.63) % of estradiol | 106.60 ± 10.76 % of the control | (48.18) % of estradiol | 104.92 ± 9.08 % of the control | (47.42) % of estradiol | 104.68 ± 13.96 % of the control | 47.31 % of estradiol | estrogen activity / estrogen receptor activation (in words) [1]: show relevance to estrogen receptor activation; selectivity to receptor subtypes (ERα vs ERβ) [1]: no receptor selectivity; concentration at which the transcriptional activity of ERα is agonized ([2]; luciferase reporter gene): 10^−6 M; concentration at which the transcriptional activity of ERβ is agonized ([3]; luciferase reporter gene): 10^−6 M
